# Laboratory results from patent US20040204340A1, “Polyprolyl inhibitors of cyclophilin” (Guilford Pharmaceuticals, Inc., priority 2003, published 2004).
# System: cultured chick sensory neurons from dorsal root ganglia
# Assay: Chick dorsal root ganglion cultures and neurite outgrowth
# Assay type: cell-based
# Details: 1 mM, 48 h after treatment (FIGS. 4, 5)
# Protocol: Dorsal root ganglia were dissected from chick embryos of ten day gestation. Whole ganglion explants were cultured on thin layer Matrigel-coated 12 well plates with Liebovitz L15 plus high glucose media supplemented with 2 mM glutamine and […], and also containing 10 μM cytosine 9-D arabinofuranoside (Ara C) at 37° C. in an environment containing 5% CO2. Twenty-four hours later, the DRGs were treated with various concentrations of nerve growth factor, immunophilin ligands or combinations of NFG plus drugs. Forty-eight hours after drug treatment, the ganglia were visualized under phase contrast or Hoffman Modulation contrast with a Zeiss Axiovert inverted microscope. Photomicrographs of the explants were made, and neurite outgrowth was quantitated. Neurites longer than the DRG diameter were counted as positive, with total number of neurites quantitated per each experimental condition. Three to four DRGs are cultured per well, and each treatment was performed in duplicate.
row,Substance,Promotion of neurite outgrowth (neurotrophic effects)
1,Ac-Pro-Ala-Pro-Ala-NH2 (Ac-PAPA-NH2),potent neurotrophic effects
2,Ac-Pro-Gly-Pro-Phe-NH2 (Ac-PGPF-NH2),powerful neurotrophic effects
